Assays:
[1] = Reduction in food intake in hungry rats after oral administration (anorexic activity); type: in vivo; details: 10 mg/kg
Experimental: The useful anorexic activity of 4-(4-chlorophenyl)-2, 2-dimethyl-7-(2-dimethylaminoethoxy)-1-methylidene tetralin and 4-(4-chlorophenyl-1,2,2,-trimethyl-7-(2-dimethylaminoethoxy) tetralin were determined by the oral administration to hungry rats of the compound and measuring the reduction in their food intake. The results are as follows: […]

[2] = test system: reserpine-induced hypothermia; assay: Reserpine Prevention test (prevention of reserpine-induced hypothermia in mice); type: in vivo; details: Mus musculus, read-out: Approximate Dose required mg/kg (dose at which compounds are active on the Reserpine Prevention Test in Mice)
Source text: The results given in Table 1 were obtained for compounds of the formula (XIII): [drawing 22]

[3] = Oral toxicity in mice (deaths, LD50); details: for Min Dose (mg/kg) at which deaths occurred: mice; for LD50: mouse, in vivo, po
in vivo = details: mouse, po

| Structure (SMILES) | reduction in food intake [1] | minimal effective dose [2] | Min Dose (mg/kg) at which deaths occurred [3] | LD50 [3] | LD50 (in vivo) |
| --- | --- | --- | --- | --- | --- |
| C=C1c2cc(OCCN(C)C)ccc2C(c2ccc(Cl)cc2)CC1(C)C (centres unmarked) [4-(4-Chlorophenyl)-2,2-dimethyl-7-(2-dimethylaminoethoxy)-1-methylidene tetralin] | 51% | – | – | – | – |
| CC1c2cc(OCCN(C)C)ccc2C(c2ccc(Cl)cc2)CC1(C)C (centres unmarked) [CH2 CH3 CHCH3 Cl H, 4-(4-Chlorophenyl)-1,2,2-trimethyl-7-(2-dimethylaminoethoxy)tetralin] | 35% | 3 mg/kg | > 100 mg/kg | > 100 mg/kg | – |
| CN(C)CCOc1ccc2c(c1)C(Cl)C(C)(C)CC2c1ccc(Cl)cc1 (centres unmarked) [CH2 CH3 CHCl Cl H, 1-Chloro-4-(4-chlorophenyl)-2,2-dimethyl-7-(2-dimethylaminoethoxy)tetralin] | – | 0.1 mg/kg | 30 mg/kg | 33 mg/kg | – |
| CN(C)CCOc1ccc2c(c1)C(O)C(C)(C)CC2c1ccc(Cl)cc1 (centres unmarked) [CH2 CH3 CHOH Cl H, 4-(4-Chlorophenyl)-1-hydroxy-2,2-dimethyl-7-(2-dimethylaminoethoxy)tetralin] | – | 0.1 mg/kg | 3 mg/kg | – | 11 mg/kg |
| CN(C)CCOc1ccc2c(c1)C(=O)C(C)(C)CC2c1ccc(Cl)c(Cl)c1 (centres unmarked) [CH2 CH3 CO Cl Cl, 4-(3,4-Dichlorophenyl)-2,2-dimethyl-7-(2-dimethylaminoethoxy)-1-tetralone] | – | 1 mg/kg | 10 mg/kg | 10 to 30 mg/kg | – |
| CN(C)CCOc1ccc2c(c1)C(=O)C(C)(C)CC2c1ccc(Cl)cc1 (centres unmarked) [CH2 CH3 CO Cl H, 4-(4-Chlorophenyl)-2,2-dimethyl-7-(2-dimethylaminoethoxy)-1-tetralone] | – | 0.03 mg/kg | 10 mg/kg | 55 mg/kg | – |
| CN(C)CCOc1ccc2c(c1)C(=O)C(C)(C)CC2c1cccc(C(F)(F)F)c1 (centres unmarked) [CH2 CH3 CO H CF3, 4-(3-Trifluoromethylphenyl)-2,2-dimethyl-7-(2-dimethylaminoethoxy)-1-tetralone] | – | 3 mg/kg | > 100 mg/kg | > 100 mg/kg | – |
| CNCC(O)COc1ccc2c(c1)C(=O)C(C)(C)CC2c1ccc(Cl)c(Cl)c1 (centres unmarked) [H CO Cl Cl, 4-(3,4-Dichlorophenyl)-7-(2-hydroxy-3-methylaminopropoxy)-2,2-dimethyl-1-tetralone] | – | 1 mg/kg | > 100 mg/kg | 100 mg/kg | – |

— patent US4322370A, “Polycyclic compounds” (Beecham Group Limited, priority 1975, dated 1982)
